The text below walks through data of patent US8906904B2, “Alkoxy pyrazoles as soluble guanylate cyclase activators” (Boehringer Ingelheim International GmbH, priority 2012, dated 2014).

The assay has as its target T1, human soluble guanylate cyclase alpha 1 and beta 1 subunits (sGC) (Homo sapiens, UniProt Q02108+Q02153).
T1 construct: expressed in transfected cells; host or cells: Chinese hamster ovary (CHO) cells, stably transfected
T1 sequence (Q02108 1-690): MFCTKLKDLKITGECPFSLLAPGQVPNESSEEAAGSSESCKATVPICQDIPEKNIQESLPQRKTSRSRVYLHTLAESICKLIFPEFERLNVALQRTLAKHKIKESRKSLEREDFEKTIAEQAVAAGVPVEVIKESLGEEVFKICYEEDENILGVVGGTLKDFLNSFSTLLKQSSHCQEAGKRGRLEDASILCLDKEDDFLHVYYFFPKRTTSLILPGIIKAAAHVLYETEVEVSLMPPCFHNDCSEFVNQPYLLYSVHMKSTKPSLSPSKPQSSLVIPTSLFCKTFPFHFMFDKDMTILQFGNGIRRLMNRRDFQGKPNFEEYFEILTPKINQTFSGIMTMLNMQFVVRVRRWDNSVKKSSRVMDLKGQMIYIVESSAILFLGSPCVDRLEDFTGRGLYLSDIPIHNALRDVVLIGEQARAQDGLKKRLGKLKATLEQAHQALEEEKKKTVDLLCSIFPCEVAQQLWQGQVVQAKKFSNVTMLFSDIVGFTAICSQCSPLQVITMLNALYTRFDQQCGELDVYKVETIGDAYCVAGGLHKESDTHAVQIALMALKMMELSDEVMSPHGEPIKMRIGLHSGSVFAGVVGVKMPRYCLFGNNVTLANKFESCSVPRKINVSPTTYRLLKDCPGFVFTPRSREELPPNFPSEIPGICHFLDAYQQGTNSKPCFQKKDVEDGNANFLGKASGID
T1 sequence (Q02153 1-619): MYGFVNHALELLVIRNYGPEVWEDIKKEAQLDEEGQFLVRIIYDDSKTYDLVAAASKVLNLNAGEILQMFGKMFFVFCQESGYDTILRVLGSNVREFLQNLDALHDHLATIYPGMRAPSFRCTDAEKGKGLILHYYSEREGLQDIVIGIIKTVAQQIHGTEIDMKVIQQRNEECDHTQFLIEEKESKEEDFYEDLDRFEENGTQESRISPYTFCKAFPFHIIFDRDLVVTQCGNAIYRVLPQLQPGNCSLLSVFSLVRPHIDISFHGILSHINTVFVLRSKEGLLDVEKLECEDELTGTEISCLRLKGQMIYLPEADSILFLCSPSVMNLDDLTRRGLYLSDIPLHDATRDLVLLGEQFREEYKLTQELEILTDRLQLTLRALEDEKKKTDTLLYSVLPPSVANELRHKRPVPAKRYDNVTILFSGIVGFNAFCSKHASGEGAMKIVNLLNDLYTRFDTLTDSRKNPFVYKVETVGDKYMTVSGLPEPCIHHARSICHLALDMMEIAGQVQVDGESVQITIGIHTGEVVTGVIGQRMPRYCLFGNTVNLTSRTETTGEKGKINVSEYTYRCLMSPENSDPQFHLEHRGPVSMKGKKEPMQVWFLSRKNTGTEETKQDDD
Description: sGC cellular activator assay (cGMP, HTRF). The assay is classed as cell-based. Particulars: CHO cells stably expressing human sGC alpha 1/beta 1, preincubated with 40 microM ODQ; cGMP readout; assay run with and without 50% human serum, Table 2 does not say which. A digest of the protocol:
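First, CHO-sGC (human α1β1) cells get 1 h ODQ at 40 microM with IBMX and 0.1% BSA. Finally, cGMP is quantified by HTRF and EC50 computed.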
(In general: Time-resolved FRET reads energy transfer from a long-lived donor to a nearby acceptor.)
By EC50 is commonly meant the concentration needed to bring the measured effect to its halfway point. A low value points to higher potency in that assay. `CCOc1c(C(=O)O)cnn1-c1cccc(-c2cccc(C)c2OCc2ccc3c(c2C)CCN(C[C@H]2COCCO2)CC3)n1` [Compound 212] gave an EC50 of 36 nM.
With `COc1c(C(=O)O)cnn1-c1cccc(-c2cccc(C)c2OCc2ccc3c(c2C)CCN(C[C@H]2CCCO2)CC3)n1` [Compound 222], the response was half-maximal at 5.4 nM (EC50).
In turn, `CCOc1c(C(=O)O)cnn1-c1cccc(-c2cccc(C)c2OCc2ccc3c(c2C)CCN(C2CCOCC2)C3=O)n1` [Compound 194] displayed an EC50 of 87 nM.
On to `COc1c(C(=O)O)cnn1-c1cccc(-c2cccc(C)c2OCc2cc(F)c3c(c2)CCN(C[C@H]2CCCCO2)C3)n1` [Compound 229], for which the EC50 was 3.9 nM.
Regarding `COCC(C)N1CCc2cc(COc3c(C)cccc3-c3cccc(-n4ncc(C(=O)O)c4OC)n3)cc(C)c2C1` (centres unmarked) [Compound 244], the EC50 was found to be 23 nM.
In turn, `COc1c(C(=O)O)cnn1-c1cccc(-c2cccc(C)c2OCc2cc(F)c3c(c2)CCN(C2CCOCC2)C3)n1` [Compound 201] showed an EC50 of 12 nM.
Turning to `CCOc1c(C(=O)O)cnn1-c1cccc(-c2cccc(C)c2OCc2cc(C)c3c(c2)CCN([C@H]2CCCOC2)C3)n1` [Compound 197], the EC50 was determined as 19 nM.
For the compound `COc1c(C(=O)O)cnn1-c1cccc(-c2cccc(C)c2OCc2cc(C)c3c(c2)CCN(C2CCOC2)C3)n1` (centres unmarked) [Compound 242], the EC50 was determined as 11 nM.
For the compound `CCOc1c(C(=O)O)cnn1-c1cccc(-c2cccc(C)c2OCc2ccc3c(c2C)CCN(C(C)COC)CC3)n1` (centres unmarked) [Compound 196], the EC50 came out at 13 nM.
With `COc1c(C(=O)O)cnn1-c1cccc(-c2cccc(C)c2OCc2ccc3c(c2)CCN(C2CCOC2)C3)n1` (centres unmarked) [Compound 15], the midpoint of the response, the EC50, lay at 28 nM.
Take `COc1c(C(=O)O)cnn1-c1cccc(-c2cccc(C)c2OCc2ccc3c(c2F)CCN([C@H]2CCOC2)C3)n1` [Compound 251]: the EC50 is 7 nM.
For `COc1c(C(=O)O)cnn1-c1cccc(-c2cccc(C)c2OCc2ccc3c(c2Cl)CCN(C2CCOCC2)C3)n1` [Compound 18] the value was 8 nM; for `CCOc1c(C(=O)O)cnn1-c1cccc(-c2cccc(C)c2OCc2ccc3c(c2C)CCN(C[C@H]2CCO2)CC3)n1` [Compound 226], 12 nM; for `CCOc1c(C(=O)O)cnn1-c1cccc(-c2cccc(C)c2OCc2ccc3c(c2C)CCN([C@H]2CCOC2)CC3)n1` [Compound 225], 10 nM.
The same measure for `CCOc1c(C(=O)O)cnn1-c1cccc(-c2cccc(C)c2OCc2ccc3c(c2C)CCN(C[C@@H]2CCCCO2)CC3)n1` [Compound 215]: 37 nM.
For the compound `CCOc1c(C(=O)O)cnn1-c1cccc(-c2cccc(C)c2OCc2ccc3c(c2C)CCN(C[C@@H]2COCCO2)CC3)n1` [Compound 211], the EC50 worked out at 30 nM.
Regarding `COc1c(C(=O)O)cnn1-c1cccc(-c2cccc(C)c2OCc2ccc3c(c2C)CCN(C[C@@H]2COCCO2)CC3)n1` [Compound 204], the EC50 is 4.5 nM.
`CCOc1c(C(=O)O)cnn1-c1cccc(-c2cccc(C)c2OCc2ccc3c(c2C)CCN(C[C@@H]2CCOC2)C3)n1` [Compound 189] had an EC50 of 12 nM.
In turn, `CCOc1c(C(=O)O)cnn1-c1cccc(-c2cccc(C)c2OCc2ccc3c(c2)CCCN(C2CCCOC2)C3)n1` (centres unmarked) [Compound 245] registered an EC50 of 280 nM.
In turn, `COc1c(C(=O)O)cnn1-c1cccc(-c2cccc(C)c2OCc2ccc3c(c2)C(C)(C)CN(C2CCCOC2)C3)n1` (centres unmarked) [Compound 218] registered an EC50 of 62 nM.
Compound `CCOc1c(C(=O)O)cnn1-c1cccc(-c2cccc(C)c2OCc2ccc3c(c2OC)CCN(C2CCOCC2)C3)n1` [Compound 220] returned a 50% effective concentration (EC50) of 150 nM.
The compound `COc1c(C(=O)O)cnn1-c1cccc(-c2cccc(C)c2OCc2cc(F)c3c(c2)CCN([C@@H]2CCOC2)C3)n1` [Compound 253] registered a 50% effective concentration (EC50) of 13 nM.
The same measure for `COc1c(C(=O)O)cnn1-c1cccc(-c2cccc(C)c2OCc2ccc3c(c2C)CCN(C2COC2)C3)n1` [Compound 16]: 23 nM.
The same measure for `COc1c(C(=O)O)cnn1-c1cccc(-c2cccc(C)c2OCc2cc(F)c3c(c2)CCN([C@H]2CCOC2)C3)n1` [Compound 254]: 25 nM; for `CCOc1c(C(=O)O)cnn1-c1cccc(-c2cccc(C)c2OCc2ccc3c(c2C)CCN(C[C@H]2CCCO2)CC3)n1` [Compound 233]: 11 nM; for `CCOc1c(C(=O)O)cnn1-c1cccc(-c2cccc(C)c2OCc2cc(C)c3c(c2)CCN(C2CCOC2)C3)n1` (centres unmarked) [Compound 241]: 8 nM.
Consider `CCOc1c(C(=O)O)cnn1-c1cccc(-c2cccc(C)c2OCc2cc(C)c3c(c2)CCN([C@@H]2CCCOC2)C3)n1` [Compound 195], for which the 50% effective concentration (EC50) worked out at 4.7 nM.
The compound `COc1c(C(=O)O)cnn1-c1cccc(-c2cccc(C)c2OCc2ccc3c(c2)CCN(C[C@@H]2CCOC2)C3)n1` [Compound 188] came in with an EC50 of 8.6 nM.
The same measure for `COc1c(C(=O)O)cnn1-c1cccc(-c2cccc(C)c2OCc2ccc3c(c2C)CCN(CC2CC(F)(F)C2)C3)n1` [Compound 29]: 3.5 nM.
With `COc1c(C(=O)O)cnn1-c1cccc(-c2cccc(C)c2OCc2ccc3c(c2C)CCN(C[C@@H]2CCCO2)CC3)n1` [Compound 223], a half-maximal response (EC50) required 8.5 nM. This EC50 lies about 2.4-fold higher than the previous one.
In the case of `COc1c(C(=O)O)cnn1-c1cccc(-c2cccc(C)c2OCc2ccc3c(c2)C(C)(C)CN(CC2COCCO2)C3)n1` (centres unmarked) [Compound 219], a half-maximal effect (EC50) was put at 140 nM.
For `CCOc1c(C(=O)O)cnn1-c1cccc(-c2cccc(C)c2OCc2ccc3c(c2C)CCN(C[C@@H]2CCCCO2)C3)n1` [Compound 236], it took 28 nM to reach a half-maximal effect (EC50). Against the preceding compound, the EC50 is about 5-fold lower.
Take `COc1c(C(=O)O)cnn1-c1cccc(-c2cccc(C)c2OCc2cc(C)c3c(c2)CCN(C2COC2)C3)n1` [Compound 186]: the EC50 is 16 nM.
Take `CCOc1c(C(=O)O)cnn1-c1cccc(-c2cccc(C)c2OCc2ccc3c(c2C)CCN(C[C@@H]2CCO2)CC3)n1` [Compound 228]: the response was half-maximal at 14 nM (EC50).
For `COc1c(C(=O)O)cnn1-c1cccc(-c2cccc(C)c2OCc2ccc3c(c2Cl)CCN(C2CCOC2)C3)n1` (centres unmarked) [Compound 22], the EC50 came to 14 nM. This counts as double-digit nanomolar.
`CCOc1c(C(=O)O)cnn1-c1cccc(-c2cccc(C)c2OCc2ccc3c(c2C)CCN(C[C@H]2CCCCO2)CC3)n1` [Compound 214] showed an EC50 of 30 nM. Against the preceding compound, the EC50 is about 2.1-fold higher.
The same measure for `COc1c(C(=O)O)cnn1-c1cccc(-c2cccc(C)c2OCc2ccc3c(c2)CCN(CC2CCC2)C3)n1` [Compound 25]: 16 nM.
As to `COc1c(C(=O)O)cnn1-c1cccc(-c2cccc(C)c2OCc2ccc3c(c2C)CCN(C[C@@H]2CCOC2)C3)n1` [Compound 191], a half-maximal effect (EC50) was put at 3.3 nM. This EC50 is about 4.8-fold lower than that of the compound before.
In the case of `CCOc1c(C(=O)O)cnn1-c1cccc(-c2cccc(C)c2OCc2ccc3c(c2C)CCN(C[C@H]2CCOC2)C3)n1` [Compound 193], the EC50 turned out to be 12 nM.
`CCOc1c(C(=O)O)cnn1-c1cccc(-c2cccc(C)c2OCc2ccc3c(c2)CCN(C2COC2)CC3)n1` [Compound 213]: the midpoint of the response, the EC50, lay at 39 nM.
Turning to `COc1c(C(=O)O)cnn1-c1cccc(-c2cccc(C)c2OCc2ccc3c(c2Cl)CCN(C2COC2)C3)n1` [Compound 17], the EC50 was determined as 18 nM. This EC50 is about 2.2-fold lower than that of the compound before.
The compound `CCOc1c(C(=O)O)cnn1-c1cccc(-c2cccc(C)c2OCc2ccc3c(c2C)CCN(C[C@@H]2CCCO2)CC3)n1` [Compound 235] showed an EC50 of 20 nM.
In turn, `COc1c(C(=O)O)cnn1-c1cccc(-c2cccc(C)c2OCc2ccc3c(c2)CCN(CC2CC2)C3)n1` [Compound 24] gave an EC50 of 54 nM.
`COc1c(C(=O)O)cnn1-c1cccc(-c2cccc(C)c2OCc2ccc3c(c2)CN(CC2COCCO2)C3)n1` (centres unmarked) [Compound 247] had an EC50 of 8.6 nM.
For `COc1c(C(=O)O)cnn1-c1cccc(-c2cccc(C)c2OCc2ccc3c(c2C)CCN(CC2(C)COC2)C3)n1` [Compound 28] the value was 13 nM; for `COc1c(C(=O)O)cnn1-c1cccc(-c2cccc(C)c2OCc2cc(C)c3c(c2)CCN(CC2COCCO2)C3)n1` (centres unmarked) [Compound 240], 7.9 nM; for `COc1c(C(=O)O)cnn1-c1cccc(-c2cccc(C)c2OCc2ccc3c(c2Cl)CCN(CC(C)(C)C)C3)n1` [Compound 21], 17 nM.
